Paper PMC3920478, “Small molecule-mediated refolding and activation of myosin motor function” (eLife, 2014)
Entries after “also recorded” stand apart in the source; their conditions may differ.

Tests used:
[1] = molecular target: Skeletal muscle myosin-2 (HMM); assay: Steady-state basal and actin-activated Mg2+-ATPase (NADH-coupled assay); assay type: biochemical, Rabbit
Method: Rabbit fast skeletal muscle heavy meromyosin (HMM) was prepared as described by [Margossian and Lowey (1982)]. Porcine β-cardiac myosin was prepared essentially as described by [Pant et al. (2009)] and [Jacques et al. (2008)] and further purified by gel filtration. S1 and HMM fragments were produced by proteolytic digestion of the full-length proteins with 0.05 mg/ml papain (10 min, 25°C) for S1 and with 0.1 mg/ml TLCK-treated α-chymotrypsin (15 min, 25°C) for HMM. Reactions were stopped with specific protease inhibitors for papain (10 µM E−64) and chymotrypsin (10 µM chymostatin, 1 mM benzamidine). Proteolytic fragments were further purified by actin-coprecipitation. Pellets were washed twice and myosin was extracted from the pellets using ATP containing buffer. Gel filtration was used to further increase purity of myosin S1 and HMM fragments. His-tagged motor domain constructs of Dd myosin-2, Dd myosin-1B, Dd myosin-1C, Dd myosin-1D, Dd myosin-1E, Dd myosin-5b fused to two Dd α-actinin repeats substituting the light-chain binding domains ([Anson et al., 1996]) were expressed in Dd AX3-ORF + cells and purified by Ni^2+-chelate affinity chromatography ([Manstein and Hunt, 1995]).
Basal and actin-activated Mg^2+-ATPase activities were measured using the NADH-coupled assay described previously ([Furch et al., 1998]) adapted for higher throughput screens for a temperature controlled plate reader (Multiscan FC, Thermo Scientific, Waltham, MA) at 25°C. […] Control measurements were carried out in the absence of drug, as well as in the presence of according concentrations of the non-binding (−)-enantiomer EMD 57439 to account for possible absorption effects. […] Data points are mean values from 3 to 5 independent experiments. Error bars indicate standard deviations.

β-cardiac myosin [2] = molecular target: T1, β-cardiac myosin (Sus scrofa, UniProt P79293); assay: In vitro motility assay (actin filament sliding); assay type: biochemical, Porcine; design: β-Cardiac myosin-2 (S1, full-length); from tissue; host or cells: porcine cardiac muscle
Description: In addition, the fraction of moving filaments increased from <75% to >95%. […] In initial experiments, we determined the minimal concentration of α-actinin molecules that generate sufficient load to stall the movement of actin filaments for a given surface density of myosin heads. […] Next, we generated in vitro motility flow cells with actin filaments held at stall force. […] The time-dependence of the recovery of motile activity is best fit by a hyperbola. A plateau value of 0.4 μm s^−1 is reached after more than 2 hr (Figure 1G).
Actin-sliding motility was performed at 20°C using an Olympus IX81 (Olympus, Hamburg, Germany) inverted fluorescence microscope as described previously ([Fujita-Becker et al., 2005]). Average sliding velocities were determined from the Gaussian distribution of automatically tracked actin filaments using DiaTrack 3.01 (Semasopht, Chavannes, Switzerland) and Origin 7.0 (OriginLab Corporation, Northampton, MA). Errors indicate standard deviations.
Target sequence in this assay (P79293 whole entry): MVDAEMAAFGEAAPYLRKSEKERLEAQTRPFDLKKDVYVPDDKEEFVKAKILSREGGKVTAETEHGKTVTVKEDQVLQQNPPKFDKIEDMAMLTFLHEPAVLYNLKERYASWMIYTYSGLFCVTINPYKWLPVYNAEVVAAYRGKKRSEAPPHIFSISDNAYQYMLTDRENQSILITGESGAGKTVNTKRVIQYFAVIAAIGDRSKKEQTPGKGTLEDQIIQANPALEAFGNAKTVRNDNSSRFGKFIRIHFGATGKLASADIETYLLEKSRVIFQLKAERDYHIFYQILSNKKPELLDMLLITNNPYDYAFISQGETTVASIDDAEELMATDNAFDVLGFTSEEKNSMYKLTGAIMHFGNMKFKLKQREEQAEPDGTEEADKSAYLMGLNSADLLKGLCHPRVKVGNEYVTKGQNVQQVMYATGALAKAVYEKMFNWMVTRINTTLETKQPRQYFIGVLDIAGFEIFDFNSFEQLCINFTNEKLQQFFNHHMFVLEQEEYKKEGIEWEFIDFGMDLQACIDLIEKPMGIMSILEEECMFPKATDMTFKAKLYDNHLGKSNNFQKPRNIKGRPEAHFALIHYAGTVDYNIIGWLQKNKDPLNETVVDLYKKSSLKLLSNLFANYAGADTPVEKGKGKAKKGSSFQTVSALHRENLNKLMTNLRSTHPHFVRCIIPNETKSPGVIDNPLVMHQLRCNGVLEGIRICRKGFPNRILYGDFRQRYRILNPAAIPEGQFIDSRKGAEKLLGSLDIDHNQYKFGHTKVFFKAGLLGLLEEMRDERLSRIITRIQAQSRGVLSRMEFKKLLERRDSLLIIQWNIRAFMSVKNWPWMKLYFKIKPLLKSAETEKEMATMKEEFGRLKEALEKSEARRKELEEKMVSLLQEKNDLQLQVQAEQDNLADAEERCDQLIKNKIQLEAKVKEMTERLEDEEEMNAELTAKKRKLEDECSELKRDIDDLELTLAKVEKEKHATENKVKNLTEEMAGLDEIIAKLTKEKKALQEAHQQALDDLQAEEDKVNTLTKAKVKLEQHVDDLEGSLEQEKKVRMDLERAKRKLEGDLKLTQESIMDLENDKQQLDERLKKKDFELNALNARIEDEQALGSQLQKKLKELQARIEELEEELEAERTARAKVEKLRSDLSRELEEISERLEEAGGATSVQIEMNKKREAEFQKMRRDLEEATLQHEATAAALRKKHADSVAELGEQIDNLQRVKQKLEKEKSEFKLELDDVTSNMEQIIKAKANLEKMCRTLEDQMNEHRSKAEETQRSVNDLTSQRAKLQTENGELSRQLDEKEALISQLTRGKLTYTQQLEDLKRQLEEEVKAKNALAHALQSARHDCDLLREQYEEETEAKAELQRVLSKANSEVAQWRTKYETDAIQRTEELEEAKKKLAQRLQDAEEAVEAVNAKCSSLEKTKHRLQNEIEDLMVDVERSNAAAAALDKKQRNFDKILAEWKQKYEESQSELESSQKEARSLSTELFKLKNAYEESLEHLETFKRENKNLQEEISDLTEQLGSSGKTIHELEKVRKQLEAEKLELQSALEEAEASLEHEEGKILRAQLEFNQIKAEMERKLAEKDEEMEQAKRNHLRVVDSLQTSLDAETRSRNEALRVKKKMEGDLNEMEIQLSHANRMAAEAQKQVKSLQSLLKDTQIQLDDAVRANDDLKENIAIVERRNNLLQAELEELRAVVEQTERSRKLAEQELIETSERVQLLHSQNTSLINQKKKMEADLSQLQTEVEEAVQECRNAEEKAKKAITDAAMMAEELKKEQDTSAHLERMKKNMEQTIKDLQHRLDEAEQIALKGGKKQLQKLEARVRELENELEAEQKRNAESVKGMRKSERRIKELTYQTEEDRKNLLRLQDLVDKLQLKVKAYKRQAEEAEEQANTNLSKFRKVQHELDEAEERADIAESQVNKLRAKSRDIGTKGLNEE

[3] = molecular target: T2, Dd myosin-2 ΔSH3 (lacks residues 33–79) (Dictyostelium discoideum, UniProt P08799, DEL34-80); assay: Steady-state basal and actin-activated Mg2+-ATPase (NADH-coupled assay); assay type: biochemical
T2 construct: Dd myosin-2 ΔSH3, a recombinant motor domain construct that lacks this subdomain; made in house
T2 sequence (P08799 other isoform, or with tags, fused parts or gaps DEL34-80): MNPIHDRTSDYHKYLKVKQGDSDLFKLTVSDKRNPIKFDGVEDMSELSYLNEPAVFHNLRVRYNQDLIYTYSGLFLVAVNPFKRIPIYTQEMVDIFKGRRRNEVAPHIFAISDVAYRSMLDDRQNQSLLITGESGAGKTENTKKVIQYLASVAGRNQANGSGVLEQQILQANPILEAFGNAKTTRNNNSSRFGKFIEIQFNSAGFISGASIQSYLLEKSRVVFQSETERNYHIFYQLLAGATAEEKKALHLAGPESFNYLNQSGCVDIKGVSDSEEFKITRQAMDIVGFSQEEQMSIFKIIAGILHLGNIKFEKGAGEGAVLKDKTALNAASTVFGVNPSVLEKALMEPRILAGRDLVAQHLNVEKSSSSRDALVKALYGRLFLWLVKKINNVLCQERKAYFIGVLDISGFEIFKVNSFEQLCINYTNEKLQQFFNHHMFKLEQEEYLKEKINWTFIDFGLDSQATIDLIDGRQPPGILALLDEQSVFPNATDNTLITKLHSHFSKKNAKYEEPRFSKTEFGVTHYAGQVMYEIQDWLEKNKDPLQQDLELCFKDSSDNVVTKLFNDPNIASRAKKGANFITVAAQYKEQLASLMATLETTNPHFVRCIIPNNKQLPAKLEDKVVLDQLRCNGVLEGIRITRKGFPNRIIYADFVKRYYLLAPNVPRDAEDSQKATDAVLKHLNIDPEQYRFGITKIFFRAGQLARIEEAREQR
Description: Initial blind docking to homology models of the β-cardiac myosin motor domain in the post-rigor state indicated preferred binding of the drug to a region near the small N-terminal, SH3-like βbarrel subdomain. Important contacts are predicted to involve the SH3-like subdomain (residues 34–72) and two α-helices (residues 20–28 and 98–111). […] The sets of binding poses differ mainly in the orientation of the dimethylated catechol group, occupying either of the two possible branches of the Y, while the thiadiazinone moiety appears little affected and resides in the root of the Y shaped cavity (Figure 2A,B). Potential residues involved in the binding of the thiadiazinone and tetrahydroquinoline moieties of the compound include Arg23, Asp85, Lys86, Asp107, Arg108, and Ser111. The dimethylated catechol moiety is mainly bound by residues Lys34, Lys48, and Gln79, and thus, interacts with the SH3-like β-barrel.
Basal and actin-activated Mg^2+-ATPase activities were measured using the NADH-coupled assay described previously ([Furch et al., 1998]) adapted for higher throughput screens for a temperature controlled plate reader (Multiscan FC, Thermo Scientific, Waltham, MA) at 25°C. EMD 57033 was added to the reaction mixture in the absence of nucleotide and incubated before the reaction was started by the addition of ATP. Control measurements were carried out in the absence of drug, as well as in the presence of according concentrations of the non-binding (−)-enantiomer EMD 57439 to account for possible absorption effects. […] Data points are mean values from 3 to 5 independent experiments. Error bars indicate standard deviations.

β-cardiac myosin [4] = molecular target: T1, β-cardiac myosin; assay: Heat stress protection, storage and refolding of myosin; assay type: biochemical, Porcine; conditions: for Competence to bind nucleotide (mantATP amplitude) preserved: 25 μM EMD 57033
Method: The fraction of myosin that is able to bind mantATP drops to below 32% when the temperature is raised to 49°C for more than 5 min. Incubation for 10 min at 51°C removes the myosin completely and irreversibly from the soluble fraction. […] Moreover, based on the amplitude of the rise in mantATP fluorescence, the competence of β-cardiac myosin to bind nucleotide is preserved to more than 91% after 5-min incubation at 49°C and to approximately 82% after 10-min incubation at 49°C (Figure 4B). […] This view is supported by experiments that monitor the recovery of basal activity over a 2 hr period (Figure 4C). To obtain more detailed information about the kinetics of the EMD 57033-mediated refolding reaction, we performed three sets of experiments recording the time and concentration dependence of EMD 57033-mediated increases in the fraction of myosin molecules that are able to undergo nucleotide induced conformational changes, hydrolyze ATP, and produce movement in the in vitro motility assay.
Changes in intrinsic protein fluorescence are tightly linked to ATP binding and ATP-induced conformational changes in the myosin motor domain ([Batra and Manstein, 1999]). […] The dependence of the kobs values on the incubation time was best fit by a hyperbola (Figure 4E). […] The slope defines a value of 0.02 × 10^-3 μM^−1 s^−1 for the second order rate constant for the EMD 57033-mediated refolding reaction (Figure 4H).
Target sequence in this assay (P79293 1-778 limits assumed): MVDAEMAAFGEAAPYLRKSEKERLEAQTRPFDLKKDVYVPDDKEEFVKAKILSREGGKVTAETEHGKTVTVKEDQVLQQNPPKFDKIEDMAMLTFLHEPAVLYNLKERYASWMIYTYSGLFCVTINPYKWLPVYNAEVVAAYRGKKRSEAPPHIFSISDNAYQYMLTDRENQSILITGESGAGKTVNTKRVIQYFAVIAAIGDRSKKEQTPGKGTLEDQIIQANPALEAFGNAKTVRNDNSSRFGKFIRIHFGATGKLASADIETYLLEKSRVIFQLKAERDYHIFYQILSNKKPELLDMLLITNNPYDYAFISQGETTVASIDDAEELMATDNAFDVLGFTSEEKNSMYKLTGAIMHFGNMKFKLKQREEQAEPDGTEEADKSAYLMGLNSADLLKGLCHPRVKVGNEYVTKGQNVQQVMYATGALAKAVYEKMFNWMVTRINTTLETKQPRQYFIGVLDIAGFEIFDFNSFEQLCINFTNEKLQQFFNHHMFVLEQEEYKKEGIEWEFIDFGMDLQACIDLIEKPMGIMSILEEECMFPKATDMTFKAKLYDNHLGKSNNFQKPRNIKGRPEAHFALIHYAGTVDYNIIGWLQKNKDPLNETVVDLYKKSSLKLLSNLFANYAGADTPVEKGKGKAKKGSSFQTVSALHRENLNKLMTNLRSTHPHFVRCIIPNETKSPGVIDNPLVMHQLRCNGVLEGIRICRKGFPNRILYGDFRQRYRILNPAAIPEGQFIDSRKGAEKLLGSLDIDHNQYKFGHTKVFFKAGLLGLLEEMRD

COc1ccc(C(=O)N2CCCc3cc(C4=NNC(=O)SC4C)ccc32)cc1OC (stereo not drawn) [EMD 57033]
AC50 [1]: 15.1 µM
Activation potency relative to β-cardiac myosin (weaker) [1]: twofold
Normalized maximal ATPase activation (basal) [1]: 1.6
Normalized maximal ATPase activation (with 30 µM actin) ([1]; 30 µM actin): 2.2
Increase of actin filament sliding velocity (β-cardiac myosin [2]): 1.8 fold
Fraction of moving filaments (β-cardiac myosin [2]; in presence of EMD 57033): > 95%
Normalized maximal ATPase activation (basal) [3]: no effect
Normalized maximal ATPase activation (with 30 µM actin) ([3]; 30 µM actin): no effect
ATPase / chemomechanical activation of the truncated construct ([3]; 100 µM EMD 57033): no significant activation
Shelf life of protein-functionalized surfaces (β-cardiac myosin [4]): from a couple of hours to several months
Shelf life of myosin at 4°C (β-cardiac myosin [4]; 25 µM EMD 57033): extends the shelf life
Competence to bind nucleotide (mantATP amplitude) preserved (β-cardiac myosin [4]; 5-min incubation at 49°C): more than 91%
Competence to bind nucleotide (mantATP amplitude) preserved (β-cardiac myosin [4]; 10-min incubation at 49°C): approximately 82%
Recovery of ability to bind mantATP after heat inactivation (β-cardiac myosin [4]; 10 min at 49°C, then 25 µM EMD 57033): gradually recovered
First order dissociation rate constant for EMD 57033 (y-intercept) (β-cardiac myosin [4]; heat-treated β-cardiac myosin): 0.00023 s⁻¹
Second order rate constant for the EMD 57033-mediated refolding reaction (krescue) (β-cardiac myosin [4]; heat-treated β-cardiac myosin, 10–100 μM EMD 57033): 20 M⁻¹ s⁻¹
Recovery of enzymatic activity of fully denatured myosin aggregates (β-cardiac myosin [4]; incubation for 6 hr on ice or at 20°C): no detectable recovery of enzymatic activity
Precipitation / solubility of myosin under heat stress (β-cardiac myosin [4]; preincubation with 25 μM EMD 57033, 10-min incubation): remained in the supernatant over the entire temperature range tested; also recorded: prevents precipitation
